Test results taken from patent US20150368242A1, “NOVEL TETRAHYDROPYRIDOPYRIMIDINONE DERIVATIVE” (Ajinomoto Co., Inc., priority 2013, published 2015).
Counter-ions that a name gives are not always drawn. Like-named read-outs stand apart in the source and are kept apart here.

Molecular target: T1, recombinant human MGAT2 enzyme (Homo sapiens, UniProt Q3SYC2)
T1 construct: made in house; host or cells: CHO-K1 (Jump-In CHO-K1 Kit, Life Technologies); microsomal fraction used as the enzyme solution
Test: Test for human MGAT2 activity inhibitory action (14C-oleoyl CoA, recombinant enzyme microsomes)
Type: biochemical
Parameters: key to Potency relative to Comparative Example 1 (higher = more potent): % inhibition = {1−(C−B)/(A−B)}×100, B = 10 μM Comparative Example 1
Conditions: for IC50: read-out: IC50
Procedure: The human MGAT2 gene described in Am. J. Physiol. Endocrinol. Metab. 285: E927-E937, 2003 was expressed using Jump-In™ CHO-K1 Kit (Life technologies) as described in the attached manual. The cells were suspended in a buffer containing Tris-hydrochloric acid (pH 7.4) at a final concentration of 1 mM, 1 mM ethylenediaminetetraacetic acid, 1 mM dithiothreitol, 250 mM sucrose, and complete protease inhibitor cocktail (Roche applied Science), and then disrupted using a Teflon homogenizer (AS ONE Corporation), followed by centrifugation at 130 g for 10 minutes. The supernatant was further centrifuged at 100,000 g for 1 hour to obtain a pellet as microsomes containing the recombinant enzyme, and a solution obtained by suspending this pellet at a protein concentration of about 800 to 1900 μg/ml was used as an MGAT recombinant enzyme solution.
To a buffer containing 50 mM Tris-hydrochloric acid (pH 7.4), 6 mM magnesium chloride, and 2 mg/mL bovine serum albumin, a test compound was added, and the final concentration of dimethyl sulfoxide was adjusted to 0.3%. Moreover, 2-monooleoyl glycerol, oleoyl CoA, 1-^14C-oleoyl CoA (Perkin Elmer), and orlistat (SIGMA) were added at final concentrations of 50 μM, 50 μM, 2.2 μM, and 8.3 μM, respectively, followed by incubation at 37° C. for 10 minutes. After 10 minutes, the recombinant human MGAT2 enzyme solution was added at a final concentration of 0.67 μg/mL, and the reaction was started, with the amount of the reaction solution being 150 μl. The reaction was carried out at 37° C. for 30 minutes.
After 30 minutes, the reaction was stopped by adding 300 μl of isopropanol:heptane:water=(80:20:2) to the reaction liquid. Further, 200 μl of heptane and 100 μl of water were added, followed by stirring. Then, 100 μl of the upper layer was transferred to a 96-well plate (Corning), and mixed with 100 μl of liquid scintillator (LumaSafe Plus, Lumac). Then, the ^14C count was quantitatively determined using TopCount NXT™ microplate scintillation luminescence counter (Perkin Elmer).
The ^14C count in a case where no test compound was added was defined as A, the ^14C count in a case where 10 μM of the compound (Comparative Example 1) of Example No. 8 of WO2008/038768 was added was defined as B, and the ^14C count in the case where the test compound was added was taken as C. For this case, {1−(C−B)/(A−B)}×100(%) was calculated as the human MGAT2 activity inhibition ratio of the test compound (shown in the column named vs Comp. Ex. 1 in the following Table). A greater value of the “vs Comparative Example 1” means that the MGAT2 activity inhibitory action of the compound of Example was higher as compared to the MGAT2 activity inhibitory action of the compound of Comparative Example 1 (i.e., the human MGAT2 activity inhibition ratio was higher). […] Since this evaluation test was conducted for two separate groups, the test results of the two groups are shown separately in Table (First Test) and Table 4 (Second Test).
Next, the compounds of Examples 25 to 60 of the present invention were also investigated for their pharmacological action by using the same method as in Examples 1 to 24. […] Note that, a comparative evaluation test against the compound of Comparative Example 1 was conducted for each of the compounds of Examples (in every measurement of the inhibitory activity of the compounds of Examples 25 to 60, the inhibitory activity of the compound of Comparative Example 1 was measured). The 50% inhibition concentrations of Comparative Example 1 in the measurement of the inhibitory activities of the compounds of Examples 25 to 60 were shown in Table 5 as “IC50 (nM) of Comparative Example 1.”

[1] = Table 5, Examples 25 to 60, same method
[2] = Table 5, relative to Comparative Example 1 measured in the same run
[3] = Second Test (Table 4), relative to Comparative Example 1
[4] = First Test (Table 3), relative to Comparative Example 1, greater value = higher inhibitory action

T1 sequence (Q3SYC2 whole entry): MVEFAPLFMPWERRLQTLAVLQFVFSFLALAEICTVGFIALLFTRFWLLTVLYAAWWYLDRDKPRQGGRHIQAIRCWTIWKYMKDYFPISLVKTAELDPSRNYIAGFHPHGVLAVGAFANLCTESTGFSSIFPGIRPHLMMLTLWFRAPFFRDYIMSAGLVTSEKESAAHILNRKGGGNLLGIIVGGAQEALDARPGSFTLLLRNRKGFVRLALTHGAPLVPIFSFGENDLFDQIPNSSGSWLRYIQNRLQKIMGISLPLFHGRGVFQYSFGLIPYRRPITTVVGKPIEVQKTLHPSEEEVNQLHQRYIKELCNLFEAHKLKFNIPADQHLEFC

Row | SMILES | IC50 [1] | Potency relative to Comparative Example 1 (higher = more potent) [2] | also measured
1 | C[C@H](CNCCC(=O)N1CCc2nc(SC3CCC3)n(-c3ccccc3)c(=O)c2C1)c1ccccc1 [Example 37, 2-cyclobutylsulfanyl-3-phenyl-6-[3-[[(2S)-2-phenylpropyl]amino]propanoyl]-7,8-dihydro-5H-pyrido[4,3-d]pyrimidin-4-one trifluoroacetate] | 0.5 nM | 273 | 
2 | O=C(CCNCc1ccccc1)N1CCc2nc(SC3CCC3)n(CC3CCC3)c(=O)c2C1 [Example 12, 6-[3-(benzylamino)propanoyl]-3-(cyclobutylmethyl)-2-cyclobutylsulfanyl-7,8-dihydro-4H-pyrido[4,3-d]pyrimidin-4-one trifluoroacetate] |  |  | IC50 (Second Test (Table 4)): 1.4 nM; Potency relative to Comparative Example 1 (higher = more potent) [3]: 216
3 | O=C(CCNCCCCCOc1ccc(F)cc1)N1CCc2nc(SC3CCC3)n(-c3ccccc3)c(=O)c2C1 [Example 49, 2-cyclobutylsulfanyl-6-[3-[5-(4-fluorophenoxy)pentylamino]propanoyl]-3-phenyl-7,8-dihydro-5H-pyrido[4,3-d]pyrimidin-4-one trifluoroacetate] | < 1 nM | >184 | 
4 | O=C(CNCc1ccc(C(F)(F)F)cc1)N1CCc2nc(SC3CCC3)n(-c3ccccc3)c(=O)c2C1 [Example 1, 2-cyclobutylsulfanyl-3-phenyl-6-[2-[[4-(trifluoromethyl)phenyl]methylamino]acetyl]-7,8-dihydro-5H-pyrido[4,3-d]pyrimidin-4-one trifluoroacetate] |  |  | IC50 (First Test (Table 3)): 4.1 nM; Potency relative to Comparative Example 1 (higher = more potent) [4]: 54
5 | C[C@H](NCCC(=O)N1CCc2nc(SC3CCC3)n(-c3ccccc3)c(=O)c2C1)c1ccccc1 [Example 42, 2-cyclobutylsulfanyl-3-phenyl-6-[3-[[(1S)-1-phenylethyl]amino]propanoyl]-7,8-dihydro-5H-pyrido[4,3-d]pyrimidin-4-one trifluoroacetate] | 1.2 nM |  | 
6 | O=C(CCNCCc1ccc(O)cc1)N1CCc2nc(SC3CCC3)n(-c3ccccc3)c(=O)c2C1 [Example 30, 2-cyclobutylsulfanyl-6-[3-[2-(4-hydroxyphenyl)ethylamino]propanoyl]-3-phenyl-7,8-dihydro-5H-pyrido[4,3-d]pyrimidin-4-one trifluoroacetate] | 3 nM | 69 | 
7 | O=C(CNCc1cccc(Cl)c1)N1CCc2nc(SC3CCC3)n(-c3ccccc3)c(=O)c2C1 [Example 4, 6-[2-[(3-chlorophenyl)methylamino]acetyl]-2-cyclobutylsulfanyl-3-phenyl-7,8-dihydro-5H-pyrido 4,3-[d]pyrimidin-4-one trifluoroacetate] |  |  | IC50 (First Test (Table 3)): 2.9 nM; Potency relative to Comparative Example 1 (higher = more potent) [4]: 77
8 | O=C(CCNC[C@H](O)c1ccc(F)cc1)N1CCc2nc(SC3CCC3)n(-c3ccccc3)c(=O)c2C1 [Example 43, 2-cyclobutylsulfanyl-6-[3-[[(2R)-2-(4-fluorophenyl)-2-hydroxy-ethyl]amino]propanoyl]-3-phenyl-7,8-dihydro-5H-pyrido[4,3-d]pyrimidin-4-one trifluoroacetate] | 2.5 nM |  | 
9 | O=C(CCNCc1ccc(C(F)(F)F)cc1)N1CCc2nc(SC3CCC3)n(-c3ccccc3)c(=O)c2C1 [Example 19, 2-cyclobutylsulfanyl-3-phenyl-6-[3-[[4-(trifluoromethyl)phenyl]methylamino]propanoyl]-7,8-dihydro-5H-pyrido[4,3-d]pyrimidin-4-one trifluoroacetate] |  |  | IC50 (Second Test (Table 4)): 0.9 nM; Potency relative to Comparative Example 1 (higher = more potent) [3]: 352
10 | O=C(CCNCc1ccccc1)N1CCc2nc(SC3CCC3)n(-c3ccccc3)c(=O)c2C1 [Example 10, 6-[3-(benzylamino)propanoyl]-2-cyclobutylsulfanyl-3-phenyl-7,8-dihydro-5H-pyrido[4,3-d]pyrimidin-4-one trifluoroacetate] |  |  | IC50 (First Test (Table 3)): 0.82 nM; Potency relative to Comparative Example 1 (higher = more potent) [4]: 273
11 | O=C(CCNCC(O)c1ccccc1)N1CCc2nc(SC3CCC3)n(-c3ccccc3)c(=O)c2C1 (centres unmarked) [Example 29, 2-cyclobutylsulfanyl-6-[3-[(2-hydroxy-2-phenyl-ethyl)amino]propanoyl]-3-phenyl-7,8-dihydro-5H-pyrido[4,3-d]pyrimidin-4-one trifluoroacetate] | 1.5 nM | 138 | 
12 | O=C(CNCc1ccc(Cl)cc1)N1CCc2nc(SC3CCC3)n(-c3ccccc3)c(=O)c2C1 [Example 3, 6-[2-[(4-chlorophenyl)methylamino]acetyl]-2-cyclobutylsulfanyl-3-phenyl-7,8-dihydro-5H-pyrido[4,3-d]pyrimidin-4-one trifluoroacetate] |  |  | IC50 (First Test (Table 3)): 3.7 nM; Potency relative to Comparative Example 1 (higher = more potent) [4]: 60

Second part, led by results:

Row | IC50 [1] | Potency relative to Comparative Example 1 (higher = more potent) [2] | SMILES | also measured
13 | 2.6 nM | 81 | O=C(CNCCCCCOC1CCCCC1)N1CCc2nc(SC3CCC3)n(-c3ccccc3)c(=O)c2C1 [Example 57, 2-cyclobutylsulfanyl-6-[2-[5-(cyclohexoxy)pentylamino]acetyl]-3-phenyl-7,8-dihydro-5H-pyrido[4,3-d]pyrimidin-4-one trifluoroacetate] | 
14 | 0.7 nM |  | CC(C)[C@H](CNCCC(=O)N1CCc2nc(SC3CCC3)n(-c3ccccc3)c(=O)c2C1)Nc1ccc(Cl)cc1 [Example 40, 6-[3-[[(2R)-2-(4-chloroanilino)-3-methyl-butyl]amino]propanoyl]-2-cyclobutylsulfanyl-3-phenyl-7,8-dihydro-5H-pyrido[4,3-d]pyrimidin-4-one trifluoroacetate] | 
15 | 5.8 nM | 35 | O=C(CCNCc1nnc(Cc2ccc(C(F)(F)F)cc2)o1)N1CCc2nc(SC3CCC3)n(-c3ccccc3)c(=O)c2C1 [Example 56, 2-cyclobutylsulfanyl[-3-phenyl-6-[3-[5-[[4-(trifluoromethyl)phenyl]methyl]-1,3,4-oxadiazol-2-yl]methylamino]propanoyl]-7,8-dihydro-5H-pyrido[4,3-d]pyrimidin-4-one trifluoroacetate] | 
16 | 3.2 nM | 47 | O=C(CCNCc1nc(Cc2ccccc2)no1)N1CCc2nc(SC3CCC3)n(-c3ccccc3)c(=O)c2C1 [Example 34, 6-[3-[(3-benzyl-1,2,4-oxadiazol-5-yl)methylamino]propanoyl]-2-cyclobutylsulfanyl-3-phenyl-7,8-dihydro-5H-pyrido[4,3-d]pyrimidin-4-one trifluoroacetate] | 
17 | 1.1 nM |  | O=C(CCNCCCOc1ccc(F)cc1)N1CCc2nc(SC3CCC3)n(-c3ccccc3)c(=O)c2C1 [Example 47, 2-cyclobutylsulfanyl-6-[3-[3-(4-fluorophenoxy)propylamino]propanoyl]-3-phenyl-7,8-dihydro-5H-pyrido[4,3-d]pyrimidin-4-one trifluoroacetate] | 
18 | 1.3 nM | 166 | O=C(CCNCc1ccc2c(c1)CCO2)N1CCc2nc(SC3CCC3)n(-c3ccccc3)c(=O)c2C1 [Example 32, 2-cyclobutylsulfanyl-6-[3-(2,6-dihydrobenzofuran-5-ylmethylamino)propanoyl]-3-phenyl-7,8-dihydro-5H-pyrido[4,3-d]pyrimidin-4-one trifluoroacetate] | 
